According to the supplement of paper PMC3493320:
pIC50: −log10 of the molar value.

The molecules below were run on NCI-H295R (assay: IC50 (antiproliferative, ATP content)). Conditions: 48 h.
In short: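 Adrenocortical carcinoma cells (1500 per well) were seeded in serum-free ITS-supplemented DMEM in 1536-well plates and cultured overnight. Library compounds were then pin-transferred at 8 final concentrations from 0.6 nM to 46 µM, and plates were kept 48 h at 37 °C, 5% CO2. ATP was read as CellTiter-Glo luminescence after 20 min at room temperature and normalised to vehicle (0%) and positive control (100% inhibition). IC50 came from four-parameter logistic fits; compounds with no concentration response were recorded as above the top dose.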

Compound	pIC50
N=C(N)c1ccc(OCCCCCOc2ccc(C(=N)N)cc2)cc1.O=S(=O)(O)CCO.O=S(=O)(O)CCO	< 4.34
NS(=O)(=O)c1cc2c(cc1Cl)NC(Cc1ccccc1)NS2(=O)=O (stereo unspecified)	< 4.34
NC(=O)NC1NC(=O)NC1=O (stereo unspecified)	< 4.34
Cl.N=C(N)NC(=O)Cc1c(Cl)cccc1Cl	< 4.34
CC1(O)CCC(C(C)(C)O)CC1 (stereo unspecified)	< 4.34
CCCCCC(N)=O	< 4.34
COc1ccc2cc([C@H](C)CO)ccc2c1	< 4.34
O=C([C@H]([C@]4=CC=CC=C4)CO)O[C@@H]1C[C@@H]3[C@@H]2[C@@H](O2)[C@@H]([N@+]([O-])3C)C1.Br	< 4.34
CCCC(C)(COC(N)=O)COC(N)=O	< 4.34
CC(=O)Oc1cccc(O)c1	< 4.34
O[C@@H]1CC[C@@H](/C=C(C)/[C@H]([C@H](C)[C@@H](O)CC4=O)O[C@@]([C@H]2N(C(C([C@]3(O)O[C@H]([C@H](C[C@H](C/C(C)=C/[C@H]4CC=C)C)OC)[C@@H](OC)C[C@H]3C)=O)=O)CCCC2)=O)C[C@H]1OC	< 4.34
CN1CCC(OC(=O)C(Oc2ccc(Cl)cc2)Oc2ccc(Cl)cc2)CC1	< 4.34
Nc1cc(c(cc1S(=O)(N)=O)S(N)(=O)=O)C(/Cl)=C(/Cl)Cl	< 4.34
CC[C@H](C)C(=O)O[C@H]1C[C@H](O)C=C2C=C[C@H](C)[C@H](CC[C@@H](O)C[C@@H](O)CC(=O)[O-])[C@H]21.[Na+]	< 4.34
CCCCCCCCCCCCCCCC(=O)NCCO	< 4.34
CCOc1ccc(NC(C)=O)cc1	< 4.34
CN(C)C(=O)COC(=O)Cc1ccc(OC(=O)c2ccc(NC(=N)N)cc2)cc1.CS(=O)(=O)O	< 4.34
C[C@]12CC[C@@H]3c4ccc(OC(=O)c5ccccc5)cc4CC[C@H]3[C@@H]1CC[C@@H]2O	< 4.34
COc1ccc(Cc2nccc3cc(OC)c(OC)cc23)cc1OC.Cl	< 4.34
Oc1ccc(Cl)c2c1CCC2	< 4.34
CC1(C)S[C@@H]2[C@H](NC(=O)C3(N)CCCCC3)C(=O)N2[C@H]1C(=O)O	< 4.34
CCCCC[C@@H](O)C1C(=O)OC(C)C(O)/C=C/C=C/C=C/C=C/C=C(\C)C(O)C(O)C(O)C[C@H](O)C[C@H](O)C[C@H](O)C[C@H](O)C[C@@H]1O (stereo partly specified)	< 4.34
CC(C)=CCC/C(C)=C/CO	< 4.34
C=CCSSSCC=C	< 4.34
ClC(Cl)Cl	< 4.34
CC(=O)Nc1ccc(OC(=O)c2ccccc2O)cc1	< 4.34

Compound	pIC50
NC[C@@H]1O[C@H](O[C@H]2[C@@H](O)[C@H](O[C@@H]3[C@@H](O)[C@H](N)C[C@H](N)[C@H]3O[C@H]3O[C@H](CO)[C@@H](O)[C@H](O)[C@H]3N)O[C@@H]2CO)[C@H](N)[C@@H](O)[C@@H]1O.O=S(=O)(O)O	< 4.34
O=S(=O)([O-])O.[Na+]	< 4.34
CC(C)(O)C(Cl)(Cl)Cl	< 4.34
C[C@@H](Cc1ccccc1)NCCC(c1ccccc1)c1ccccc1.C[C@H](O)C(=O)O	< 4.34
O=[C@](CO)[C@](CC2)(O)[C@](CC1)(C)[C@]2([H])[C@@](CC4)([H])[C@@]1([H])[C@](CC3)(C)C4=CC3=O	< 4.34
COP(=S)(OC)Oc1ccc(S(=O)(=O)N(C)C)cc1	< 4.34
O=C1NC(=O)C(c2ccccc2)(c2ccccc2)N1	< 4.34
COc1c2occc2cc2ccc(=O)oc12	< 4.34
CN1[C@@H]2CC[C@H]1C[C@@H](OC(=O)c1c[nH]c3ccccc13)C2	< 4.34
CCOCCn1c(N2CCCN(C)CC2)nc2ccccc21.O=C(O)/C=C/C(=O)O.O=C(O)/C=C/C(=O)O	< 4.34
O=C(O)c1cc(N=Nc2ccc(S(=O)(=O)Nc3ccccn3)cc2)ccc1O	< 4.34
CN(C)[C@@H]1C(O)=C(C(N)=O)C(=O)[C@@]2(O)C(O)=C3C(=O)c4c(O)ccc(Cl)c4[C@@H](O)[C@H]3C[C@@H]12.Cl	< 4.34
COc1cc(O)cc(O)c1	< 4.34
CCc1c2c(nc3ccc(OC(=O)N4CCC(N5CCCCC5)CC4)cc13)-c1cc3c(c(=O)n1C2)COC(=O)[C@]3(O)CC.Cl	< 4.34
O=C([O-])[C@H](O)[C@@H](O)[C@H](O)[C@H](O)CO.[Na+]	< 4.34
COC(=O)C1=CCCN(C)C1	< 4.34
CC1=C(/C=C/C(C)=C/C=C/C(C)=C/C=C/C=C(C)/C=C/C=C(C)/C=C/C2=C(C)C(=O)CCC2(C)C)C(C)(C)CCC1=O	< 4.34
Nc1nc(N)nc(NC2CC2)n1	< 4.34
CC(C)Cc1ccc(C(C)C(=O)O)cc1 (stereo unspecified)	< 4.34
Cc1cccn2c(=O)c(-c3nnn[n-]3)cnc12.[K+]	< 4.34
CCN1C(=O)NC(c2ccccc2)C1=O (stereo unspecified)	< 4.34
CS(=O)(=O)c1ccc([C@@H](O)[C@@H](COC(=O)CN)NC(=O)C(Cl)Cl)cc1.Cl	< 4.34
O=C1C[N+]([O-])=C(c2ccccc2)c2cc(Cl)ccc2N1	< 4.34
Cc1ccc(N(CC2=NCCN2)c2cccc(O)c2)cc1	< 4.34
COC(=O)CC[C@H](N)C(=O)O	< 4.34
O=C1[C@@](CC2)(C)[C@@](C)(C)[C@H]2C1	< 4.34

Compound	pIC50
CC1CS(=O)(=O)CCN1/N=C/c1ccc([N+](=O)[O-])o1 (stereo unspecified)	< 4.34
CCCNCC(O)COc1ccccc1C(=O)CCc1ccccc1 (stereo unspecified)	< 4.34
NS(=O)(=O)c1cc2c(cc1Cl)NC(C1CC3C=CC1C3)NS2(=O)=O (stereo unspecified)	< 4.34
CCN(CC)CCOC(=O)C(c1ccccc1)C1CCCCC1.Cl (stereo unspecified)	< 4.34
[C@@]2\1(\C(=C/C(/C=C/1)=O)[C@H](C[C@@H]4[C@@H]2[C@H](C[C@@]3([C@](C(=O)CO)(O)CC[C@H]34)C)O)C)C	< 4.34
C=Cc1ccc(S(=O)(=O)[O-])cc1.[Na+]	< 4.34
Cc1cc(O)ccc1Cl	< 4.34
CCCCCNC(=N)N/N=C/c1c[nH]c2ccc(OC)cc12	< 4.34
O=S(=O)([O-])CCCS(=O)(=O)[O-].[Na+].[Na+]	< 4.34
Nc1ccc(S(=O)(=O)Nc2ccnn2-c2ccccc2)cc1	< 4.34
NS(=O)(=O)Cc1noc2ccccc12	< 4.34
Cc1c(Cl)c(=O)oc2cc(OP(=O)(OCCCl)OCCCl)ccc12	< 4.34
Cc1c(NC(C)C)c(=O)n(-c2ccccc2)n1C	< 4.34
CCCNC(C)(C)COC(=O)c1ccccc1.Cl	< 4.34
CCN(CC)CCOC(=O)C1(c2ccccc2)CCCC1.CCN(CC)CCOC(=O)C1(c2ccccc2)CCCC1.O=S(=O)(O)CCS(=O)(=O)O	< 4.34
CC(=O)NCc1c(I)c(NC(C)=O)c(I)c(C(=O)O)c1I	< 4.34
Cl.N=C(N)n1cccn1	< 4.34
O=C(O)CCCC/C=C(\c1ccccc1)c1cccnc1	< 4.34
CC1=Nc2ccc(Cl)cc2S(=O)(=O)N1	< 4.34
CCn1cc(C(=O)O)c(=O)c2cnc(N3CCNCC3)nc21	< 4.34
NC(=O)Oc1ccc(Cc2ccccc2)cc1	< 4.34
OC(CCN1CCCCC1)(c1ccccc1)c1ccccc1	< 4.34
COC(=O)c1ccc(O)cc1	< 4.34
O=C([O-])COc1nn(Cc2ccccc2)c2ccccc12.[Na+]	< 4.34
